Data on 17 compounds can be found in patent US20140011799A1 (Bristol-Myers Squibb Company, priority 2012, published 2014).

One test has as its target T1, Endothelial lipase (EL) (Homo sapiens, UniProt Q9Y5X9).
T1 construct: HT-1080 cells that were transformed using RAGE technology (Athersys) to overexpress endogenous EL; endogenous in cells; conditioned medium used
T1 sequence (Q9Y5X9 21-500): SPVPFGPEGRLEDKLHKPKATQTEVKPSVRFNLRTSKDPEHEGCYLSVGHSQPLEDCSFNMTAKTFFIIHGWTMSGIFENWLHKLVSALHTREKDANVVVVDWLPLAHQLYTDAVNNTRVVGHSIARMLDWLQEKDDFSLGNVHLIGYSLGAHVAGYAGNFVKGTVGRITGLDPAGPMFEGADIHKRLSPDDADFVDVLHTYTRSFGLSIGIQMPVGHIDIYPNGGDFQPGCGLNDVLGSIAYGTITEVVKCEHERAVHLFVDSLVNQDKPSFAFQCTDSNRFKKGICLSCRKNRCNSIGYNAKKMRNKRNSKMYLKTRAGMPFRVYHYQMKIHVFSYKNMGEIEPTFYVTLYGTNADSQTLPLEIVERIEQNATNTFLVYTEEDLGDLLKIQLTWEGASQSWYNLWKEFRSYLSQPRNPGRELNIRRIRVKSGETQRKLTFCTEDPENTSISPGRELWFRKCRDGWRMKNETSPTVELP
The test can be described thus: Endothelial lipase (EL) enzymatic assay, fluorescent substrate A10070 in DMPG vesicles. It is filed as biochemical. Particulars: EL from conditioned media of HT-1080 cells; compound preincubated 30 min at 37° C; read-out: EL IC50. The procedure, abridged: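 EL from conditioned medium of HT-1080 cells engineered to overexpress endogenous EL; HL partially purified from conditioned medium of HL-overexpressing COS cells. Enzyme preincubated with compound 30 min at 37° C in 50 mM HEPES pH 8.0, 50 mM NaCl, 1 mM CaCl2; DMPG vesicles carrying FRET substrate (0.11 mole fraction) then added.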

Another test deals with T2, hepatic lipase (HL) (Homo sapiens, UniProt P11150).
T2 construct: made in house; host or cells: COS cells (conditioned medium, partially purified)
T2 sequence (P11150 23-499): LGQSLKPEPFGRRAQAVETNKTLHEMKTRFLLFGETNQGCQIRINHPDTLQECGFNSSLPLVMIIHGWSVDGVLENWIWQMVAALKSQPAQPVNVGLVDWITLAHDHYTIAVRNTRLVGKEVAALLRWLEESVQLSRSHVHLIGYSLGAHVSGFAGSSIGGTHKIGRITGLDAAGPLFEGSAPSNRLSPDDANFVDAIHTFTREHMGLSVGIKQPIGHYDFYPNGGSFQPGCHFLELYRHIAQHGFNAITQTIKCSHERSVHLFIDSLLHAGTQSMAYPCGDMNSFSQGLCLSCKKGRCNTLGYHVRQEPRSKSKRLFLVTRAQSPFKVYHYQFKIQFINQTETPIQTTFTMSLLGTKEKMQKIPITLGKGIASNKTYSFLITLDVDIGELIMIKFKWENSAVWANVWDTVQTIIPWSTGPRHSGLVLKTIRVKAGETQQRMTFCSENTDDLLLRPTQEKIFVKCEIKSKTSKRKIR
Briefly: Hepatic lipase (HL) enzymatic assay, fluorescent substrate A10070 in DMPG vesicles. The settings on record: HL partially purified from conditioned media of COS cells; compound preincubated 30 min at 37° C; read-out: HL IC50. It is filed as biochemical. As to the method:
Endothelial lipase (EL) and hepatic lipase (HL) activities were measured using a fluorescent substrate, A10070, (Invitrogen, CA) doped into an artificial vesicle containing DMPG (Avanti Polar Lipids) as the excipient. Vesicles were prepared by combining 571 μL of 29 mM DMPG in a 1:1 mixture of MeOH and CHCl3 with 2000 μL of 1 mM A10070 in a 1:1 mixture of MeOH and CHCl3. The mixture was dried under nitrogen in multiple vials then resuspended in 20 mL total volume of 50 mM HEPES pH 8.0 buffer containing 50 mM NaCl and 0.2 mM EDTA. The sample was allowed to sit at room temperature for 15 min and then was sonicated 3×4 mins on ice with a Branson Sonicator using duty cycle 1. This preparation provides vesicles with a mole fraction of 0.11 for the FRET substrate.
The enzymatic assay was measured using 384-well white Optiplates. Each well contained 20 μL of assay buffer (50 mM HEPES pH 8.0, 50 mM NaCl and 1 mM CaCl2) and 0.25 μL of a DMSO solution containing a compound of interest. EL or HL (10 μL) was added and allowed to incubate with the compound for 30 min at 37° C. The source of EL was conditioned media obtained from HT-1080 cells that were transformed using RAGE technology (Athersys) to overexpress endogenous EL, and HL was partially purified from conditioned media obtained from COS cells overexpressing HL. The reaction was started by the addition of 10 μL of a 1:10 dilution of vesicles. The final total reaction volume was […]. The reaction rates were measured on a Gemini plate reader with an excitation wavelength of 490 nm and an emission wavelength of 530 nm. Readings were taken over a period of 60 minutes, and the slope between 300 and 900 secs of the readout was used to calculate the rate of the reaction.

Consider `NS(=O)(=O)NCc1nnc(C(c2nc3ccc(-c4ccc(F)nc4)cc3s2)S(=O)(=O)Cc2ccc(OC(F)(F)F)cc2)o1` (stereo not shown) [Example 239, N-[(5-{[6-(6-fluoropyridin-3-yl)-1,3-benzothiazol-2-yl] [4-(trifluoromethoxy)phenyl]methanesulfonylmethyl}-1,3,4-oxadiazol-2-yl)methyl] aminosulfonamide], for which the IC50 at Endothelial lipase (EL) came out at 0.004 µM; at hepatic lipase (HL), 0.009 µM.

On to `CS(=O)(=O)C(c1nnc(CNS(N)(=O)=O)o1)c1nc2ccc(-c3ccc(O)nc3)cc2s1` (stereo not shown) [Example 133, N-((5-((methylsulfonyl)(6-(6-oxo-1,6-dihydro-3-pyridinyl)-1,3-benzothiazol-2-yl)methyl)-1,3,4-oxadiazol-2-yl)methyl) sulfamide], for which the IC50 stood at 0.016 µM on Endothelial lipase (EL) and 0.467 µM on hepatic lipase (HL).

With `CC(O)CNC(=O)Cc1nnc(C(c2nc3ccc(-c4ccc(C(=O)N5CCOCC5)cc4)cc3s2)S(=O)(=O)Cc2ccccc2)o1` (stereo not shown) [Example 179, 2-(5-((benzylsulfonyl)(6-(4-(4-morpholinylcarbonyl)phenyl)-1,3-benzothiazol-2-yl)methyl)-1,3,4-oxadiazol-2-yl)-N-(2-hydroxypropyl) acetamide], the IC50 is less than 0.01 µM on Endothelial lipase (EL) and 0.518 µM on hepatic lipase (HL).

For `NS(=O)(=O)NCc1nnc(C(c2nc3ccc(-c4cncnc4)cc3s2)S(=O)(=O)Cc2ccccc2)o1` (stereo not shown) [Example 125, N-((5-((benzylsulfonyl)(6-(5-pyrimidinyl)-1,3-benzothiazol-2-yl)methyl)-1,3,4-oxadiazol-2-yl)methyl) sulfamide], the IC50 is less than 0.01 µM on Endothelial lipase (EL) and 0.103 µM at hepatic lipase (HL).

In the case of `COC(=O)NCCS(=O)(=O)C(c1nnc(CNS(N)(=O)=O)o1)c1nc2ccc(-c3ccccc3)cc2s1` (stereo not shown) [Example 122, methyl (2-(((6-phenyl-1,3-benzothiazol-2-yl)(5-((sulfamoylamino)methyl)-1,3,4-oxadiazol-2-yl)methyl)sulfonyl)ethyl)carbamate], the IC50 on Endothelial lipase (EL) and on hepatic lipase (HL) was less than 0.01 µM throughout.

Turning to `CC(C)Cn1cc(-c2cc(F)c3nc(C(c4nnc(CC5SC(=O)NC5=O)o4)S(=O)(=O)Cc4ccccc4)sc3c2)cn1` (stereo not shown) [Example 165, 5-((5-((benzylsulfonyl)(4-fluoro-6-(1-isobutyl-1H-pyrazol-4-yl)-1,3-benzothiazol-2-yl)methyl)-1,3,4-oxadiazol-2-yl)methyl)-1,3-thiazolidine-2,4-dione], the half-inhibitory concentration (IC50) at Endothelial lipase (EL) was less than 0.01 µM; at hepatic lipase (HL) it was 0.024 µM.

Consider `CS(=O)(=O)C(c1nnc(CC2SC(=O)NC2=O)o1)c1nc2cc(F)c(-c3ccccc3)cc2s1` (stereo not shown) [Example 160, 5-((5-((5-fluoro-6-phenyl-1,3-benzothiazol-2-yl)(methylsulfonyl)methyl)-1,3,4-oxadiazol-2-yl)methyl)-1,3-thiazolidine-2,4-dione], for which the IC50 on Endothelial lipase (EL) is less than 0.01 µM; at hepatic lipase (HL), 0.013 µM.

With `CS(=O)(=O)C(c1nnc(CC2SC(=O)NC2=O)o1)c1nc2ccc(C#N)cc2s1` (stereo not shown) [Example 190, 2-((5-((2,4-Dioxo-1,3-thiazolidin-5-yl)methyl)-1,3,4-oxadiazol-2-yl)(methylsulfonyl)methyl)-1,3-benzothiazole-6-carbonitrile], the IC50 was less than 0.01 µM on Endothelial lipase (EL) and 0.418 µM on hepatic lipase (HL).

Regarding `CN(C)C(=O)O[C@H](C(=O)NCc1nnc(C(c2nc3ccc(-c4ccccc4)cc3s2)S(C)(=O)=O)o1)C(C)(C)C` (stereo partly drawn) [Example 156, (1S)-2,2-dimethyl-1-(((5-((methylsulfonyl)(6-phenyl-1,3-benzothiazol-2-yl)methyl)-1,3,4-oxadiazol-2-yl)methyl)carbamoyl) propyl dimethylcarbamate], the figures for the IC50 at Endothelial lipase (EL) and on hepatic lipase (HL) were 0.057 µM and 0.071 µM, respectively.

`CC(C)Cn1cc(-c2ccc3nc(C(c4nnc(CNS(N)(=O)=O)o4)S(=O)(=O)Cc4ccccc4)sc3c2)cn1` (stereo not shown) [Example 136, N-((5-((benzylsulfonyl)(6-(1-isobutyl-1H-pyrazol-4-yl)-1,3-benzothiazol-2-yl)methyl)-1,3,4-oxadiazol-2-yl)methyl)sulfamide]: the IC50 at Endothelial lipase (EL) and at hepatic lipase (HL) was less than 0.01 µM throughout.

Regarding `CS(=O)(=O)C(c1nnc(CNS(N)(=O)=O)o1)c1nc2ccc(-c3cccc(C(=O)NCCO)c3)cc2s1` (stereo not shown) [Example 257, N-(2-hydroxyethyl)-3-{2-[methanesulfonyl({5-[(sulfamoylamino)methyl]-1,3,4-oxadiazol-2-yl})methyl]-1,3-benzothiazol-6-yl}benzamide], the IC50 was found to be 0.01 µM on Endothelial lipase (EL) and 0.029 µM at hepatic lipase (HL).

As for `CS(=O)(=O)C(c1nnc(CNS(N)(=O)=O)o1)c1nc2cc(-c3cncnc3)ccc2s1` (stereo not shown) [Example 247, N-[(5-{methanesulfonyl[5-(pyrimidin-5-yl)-1,3-benzothiazol-2-yl]methyl}-1,3,4-oxadiazol-2-yl)methyl]aminosulfonamide], the IC50 amounted to 0.004 µM at Endothelial lipase (EL) and 0.043 µM on hepatic lipase (HL).

Take `CS(=O)(=O)C(c1nnc(CNS(N)(=O)=O)o1)c1nc2ccc(-c3ccc(C(=O)N4CCOCC4)cc3)cc2s1` (stereo not shown) [Example 130, N-((5-((methylsulfonyl)(6-(4-(4-morpholinylcarbonyl)phenyl)-1,3-benzothiazol-2-yl)methyl)-1,3,4-oxadiazol-2-yl)methyl)sulfamide]: the IC50 at Endothelial lipase (EL) is less than 0.01 µM; on hepatic lipase (HL) it was 0.022 µM.

As to `Cc1cc(-c2ccc3nc(C(c4nnc(CNS(N)(=O)=O)o4)S(C)(=O)=O)sc3c2)n(C)n1` (stereo not shown) [Example 118, N-[(5-{[6-(1,3-dimethyl-1H-pyrazol-5-yl)-1,3-benzothiazol-2-yl](methylsulfonyl)methyl}-1,3,4-oxadiazol-2-yl)methy] sulfuric diamide], the IC50 came to 0.018 µM on Endothelial lipase (EL) and 0.396 µM on hepatic lipase (HL).

As for `CC(C)CN(C)C(=O)c1cccc(-c2ccc3nc(C(c4nnc(CC5(C)NC(=O)NC5=O)o4)S(C)(=O)=O)sc3c2)c1` (stereo not shown) [Example 226, 3-{2-[methanesulfonyl({5-[(4-methyl-2,5-dioxo-imidazolidin-4-yl)methyl]-1,3,4-oxadiazol-2-yl})methyl]-1,3-benzothiazol-6-yl}-N-methyl-N-(2-methylpropyl)benzamide], the IC50 on Endothelial lipase (EL) came out at 0.035 µM; on hepatic lipase (HL), 0.053 µM.

Regarding `CS(=O)(=O)C(c1nnc(CNS(N)(=O)=O)o1)c1nc2cc(-c3ccccc3)ccc2s1` (stereo not shown) [Example 249, N-({5-[methanesulfonyl(5-phenyl-1,3-benzothiazol-2-yl)methyl]-1,3,4-oxadiazol-2-yl}methyl) aminosulfonamide], the IC50 on Endothelial lipase (EL) and on hepatic lipase (HL) was 0.001 µM throughout.

On to `COc1cc(-c2ccc3nc(C(c4nnc(CNS(N)(=O)=O)o4)S(=O)(=O)Cc4ccccc4)sc3c2)ccn1` (stereo not shown) [Example 137, N-((5-((benzylsulfonyl)(6-(2-methoxy-4-pyridinyl)-1,3-benzothiazol-2-yl)methyl)-1,3,4-oxadiazol-2-yl)methyl) sulfamide], for which the IC50 on Endothelial lipase (EL) and on hepatic lipase (HL) was less than 0.01 µM throughout.

Broadly, the IC50 is the midpoint of a concentration-inhibition curve.
